Results as given in article PMC6946167, “Characterization of Aspergillus nidulans TRAPPs uncovers unprecedented similarities between fungi and metazoans and reveals the modular assembly of TRAPPII” (PLoS Genetics, 2019).

Columns and labels:
RAB1 (RabO) = biological target: T1, RAB1 (RabO) (Aspergillus nidulans, UniProt C8V3Z5); experiment: GDP/mant-GDP exchange, Trp-to-mant FRET ([…] nm), exponential fit; assay type: binding; settings: 5 uM GDP-loaded GST-RAB1, 50 uM mant-GDP, 10 mM MgCl2, 10 mM KCl, 2 mM DTT, 50 mM Tris-HCl pH 7.5, 30 C; no GEF
T1 construct: gene ANIA_04281; GST fusion, expressed in E. coli, purified on glutathione-Sepharose 4B, GDP-loaded; GST not reported cut

[1] = biological target: TRAPPII from tca17Δ cells (Aspergillus nidulans); experiment: negative-stain electron microscopy; Trs120-S-purified complexes eluted from S-agarose with S-peptide, concentrated, stained with 2% uranyl acetate; single particle 2D classification

T1 sequence (C8V3Z5 entry or part of it): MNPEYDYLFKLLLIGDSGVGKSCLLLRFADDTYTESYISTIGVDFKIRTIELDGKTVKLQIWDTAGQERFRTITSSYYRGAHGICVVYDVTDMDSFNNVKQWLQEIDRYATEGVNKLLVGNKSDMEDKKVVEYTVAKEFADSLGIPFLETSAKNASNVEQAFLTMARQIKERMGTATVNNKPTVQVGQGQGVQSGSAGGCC

Compound	koff (RAB1 (RabO))	percent of particles that are TRAPPII dimers [1]
Nc1nc2c(ncn2[C@@H]2O[C@H](COP(=O)(O)OP(=O)(O)O)[C@@H](O)[C@H]2O)c(=O)[nH]1 [GDP]	Time courses of mant-GDP exchange for GDP were used to calculate the observed koff of GDP	
TRAPPII from tca17Δ cells (complex)		12%
